Results taken from US20250114313A1, “OLIGO-BENZAMIDE ANALOGS AND THEIR USE IN CANCER TREATMENT” (BOARD OF REGENTS, THE UNIVERSITY OF TEXAS SYSTEM, priority 2022, published 2025).

Tests used:
four distinct TNBC PDXs = assay: TNBC PDXs in mammary fat pad; type: in vivo, mice; conditions: daily oral, 10 mg/kg/day
Protocol: Animal Studies: All animal experiments were performed using UTHSA and UTSW IACUC approved protocols. For cell based xenograft tumor assays, TNBC cells (2×10^5-2×10^6) were mixed with an equal volume of matrigel and implanted in the mammary fat pads of 6-week-old female athymic nude mice as described^33. BALB/c mice were used for D2A1 syngeneic model. Once tumors reached measurable size, mice were divided into control (vehicle) and ERX-41 (10 mg/kg/oral) treatment groups. Mice bearing TNBC PDX tumors were purchased from Jackson laboratory (TM00089; TM00096; TM00098). TNBC PDX line UTPDX0001 establishment was earlier described^38. WHIM-20 ER+PDX model was purchased from Horizon Labs. OCa-PDX-38 was received from UTHSA ObGyn tissue procurement core. When tumors reached ˜750 mm^3 they were dissected into 2 mm^3 pieces and implanted into the mammary fat pads of 6 weeks old female SCID or NSG mice. When the tumor volume reached ˜200 mm^3, mice were randomized for treatment. The mice were monitored daily for adverse toxic effects and tumor volume was measured every 3-4 days using calipers. For establishing ES2 tumors, ES2/GFP/LUC cells were injected i.p. and tumors were measured twice a week using Xenogen in vivo imaging system. […] The mice were monitored daily for adverse toxic effects. […] The sections were scored by two independent evaluators blinded to the patient's clinical status.

[1] = Evaluation of normal organs of treated mice (H&E, IHC, flow cytometry, ELISpot); type: in vivo
Protocol: Immunohistochemistry: Immunohistochemical studies were performed as described previously.^7 For the immunohistochemical studies, tissue sections were blocked in background sniper (Biocare Medical, RS966L) followed by overnight incubation with primary antibodies anti-Ki-67 antibody (1:1000, GeneTex cat #GTX16667 RRID:AB_422351) (link), anti-CHOP antibody (1:2000, Sigma, Cat #HPA068416), anti-PERK (phospho T982) antibody (1:150, Abcam Cat #ab192591, RRID:AB_2728666) link)), anti-phospho-eIF2α (Ser51) (1:50, Cell signaling, cs3398) and subsequent secondary antibody incubation for 60 min at room temperature. Immunoreactivity was visualized by using the DAB substrate and counterstained with hematoxylin (Vector Lab, Inc.). Percent of Ki67 positive proliferating cells was calculated in five randomly selected high-power fields (×40).
ELISpot. For ELISpot analysis of total IgM^+ and IgG^+ ASCs, Multi-Screen® filter plates (Millipore) were activated with 35% ethanol, washed with PBS, and coated with anti-IgM (SouthernBiotech, Cat. #1020-01) or anti-IgG (SouthernBiotech, Cat. #1030-01) in PBS. Single bone marrow cell suspensions were prepared, as above, and cultured at 250,000 cells/ml in RPMI 1640 medium (Invitrogen) supplemented with FBS (10% v/v, Invitrogen), penicillin-streptomycin/amphotericin B (1% v/v) and 50 μM β-mercaptoethanol (RPMI-FBS) at 37° C. for 16 h. After supernatants were removed, plates were incubated with biotinylated goat anti-mouse IgM (SouthernBiotech, Cat. #1020-08) or goat anti-mouse IgG1 (SouthernBiotech, Cat. #1070-08) Ab for 2 h and, after washing, incubated with HRP-conjugated streptavidin. Plates were developed using the Vectastain AEC peroxidase substrate kit (Vector Laboratories). The stained area in each well was quantified using the CTL ImmunoSpot software (Cellular Technology) and depicted as the number of spots for quantification
Flow cytometry: Single cell suspensions were flushed from tibia and fibula using sterile DPBS using a 10 ml syringe and 30 G needle. Red blood cells were removed by incubation with ACK lysis buffer (Lonzo) for 2 m. Bone marrow cells (2×10^6) were first stained in Hank's Buffered Salt Solution plus 0.1% BSA (HBSS-BSA) for 20 m with fixable viability dye (FVD, eFluor™ 506, eBioscience™, Cat. #50-246-097) and fluorophore-labeled mAbs to surface markers, including CD3 (APC-Cy7, Clone 17A2, BioLegend, Cat. #100221), IgD (FITC, Clone 11-26c.2a, BioLegend, Cat. #405704), CD138 (PE-Cy7, Clone 281-2, BioLegend, Cat. #142514), SCA-1 (PerCP, Clone D7, BioLegend, Cat. #108121), B220 (BV421, Clone RA3-6B2, BioLegend, Cat. #103240), in the presence of mAb Clone 2.4G2, which blocks FcγII and FcγIII receptors. After washing, cells were then fixed and permeablized by incubation for 1 h in 250 μl BD Cytofix/Cytoperm™ buffer (BD Fixation/Permeablization Kit, Cat. #554714) at 4° C. After washing twice with the BD Perm/Wash™ buffer, cells were counted again and 10^6 cells were resuspended in 100 μl of BD Cytofix/Cytoperm™ buffer for intracellular staining with anti-Igκ mAb (PE, e-Bioscience™, Clone 1871, Cat. #MKAPPA04) for 30 m. After washing with BD Perm/Wash™ buffer, cells were analyzed by LSRII (BD). FACS data were analyzed by the FlowJo® software (BD).
Animal Studies: All animal experiments were performed using UTHSA and UTSW IACUC approved protocols. For cell based xenograft tumor assays, TNBC cells (2×10^5-2×10^6) were mixed with an equal volume of matrigel and implanted in the mammary fat pads of 6-week-old female athymic nude mice as described^33. BALB/c mice were used for D2A1 syngeneic model. Once tumors reached measurable size, mice were divided into control (vehicle) and ERX-41 (10 mg/kg/oral) treatment groups. Mice bearing TNBC PDX tumors were purchased from Jackson laboratory (TM00089; TM00096; TM00098). TNBC PDX line UTPDX0001 establishment was earlier described^38. WHIM-20 ER+PDX model was purchased from Horizon Labs. OCa-PDX-38 was received from UTHSA ObGyn tissue procurement core. […]

[2] = test system: ERα+ breast, glioblastoma, pancreatic and ovarian cancer cell lines; assay: CTG dose response in other cancer cell lines; type: cell-based
Protocol: Cell viability assays: Cells were seeded in 96-well plates (2×10^3 cells/well) one day before the treatment. Cells were treated with varying concentrations of ERX-41 or ERX-11 analogs for 3-6 days. Then effects of ERX-41 or ERX-11 analogs on cell viability were measured in triplicate or sextuplicate with multiple biological replicates using the WST-1 (Promega), MTT as previously described^33 or CellTiter-Glo 2.0 (Promega) assays.

## CC(C)COc1cc(C(=O)Nc2ccc(C(=O)N[C@H]3CC[C@H](C)CC3)cc2OCC(C)C)ccc1NC(=O)c1ccc([N+](=O)[O-])c(OCCO)c1 [ERX-41]
Four distinct TNBC PDXs
  rates of growth of PDX tumors: significantly decreased the rates of growth of the tumors
[1]; flow cytometry and ELISpot, 1 week oral 10 mg/kg/day
  bone marrow plasma cell numbers, Ig κ expression, IgM or IgG ASCs: did not show any significant effects
[1]; heart, lung, spleen, liver, kidney, ovary, pancreas, 30 days oral 10 mg/kg/day
  gross histology of organs, nude mice with MDA-MB-231 xenografts: no significant changes in the gross histology of multiple organs
[1]; multiple organs including spleen
  histology of organs, syngeneic mice with D2A1 xenografts: no significant histologic changes or immune infiltrates
[1]; oral administration, data not shown
  ER stress in normal liver or kidney tissues: no significant induction of ER stress
[1]; oral, 10 mg/kg/day
  uterus: proliferation index (Ki67), endometrial cell height, ERα expression: did not affect the proliferation index
[1]; syngeneic mice
  immunogenicity: not immunogenic
[2]
  responsiveness of other cancer cell lines in vitro: responsiveness to ERX-41 in vitro
